One assay has as its target T1, HDAC10 (Homo sapiens, UniProt Q969S8).
T1 construct: NanoLuc®-HDAC10 FL Fusion Vector; host or cells: HeLa cells, stably transfected
T1 sequence (Q969S8 1-669): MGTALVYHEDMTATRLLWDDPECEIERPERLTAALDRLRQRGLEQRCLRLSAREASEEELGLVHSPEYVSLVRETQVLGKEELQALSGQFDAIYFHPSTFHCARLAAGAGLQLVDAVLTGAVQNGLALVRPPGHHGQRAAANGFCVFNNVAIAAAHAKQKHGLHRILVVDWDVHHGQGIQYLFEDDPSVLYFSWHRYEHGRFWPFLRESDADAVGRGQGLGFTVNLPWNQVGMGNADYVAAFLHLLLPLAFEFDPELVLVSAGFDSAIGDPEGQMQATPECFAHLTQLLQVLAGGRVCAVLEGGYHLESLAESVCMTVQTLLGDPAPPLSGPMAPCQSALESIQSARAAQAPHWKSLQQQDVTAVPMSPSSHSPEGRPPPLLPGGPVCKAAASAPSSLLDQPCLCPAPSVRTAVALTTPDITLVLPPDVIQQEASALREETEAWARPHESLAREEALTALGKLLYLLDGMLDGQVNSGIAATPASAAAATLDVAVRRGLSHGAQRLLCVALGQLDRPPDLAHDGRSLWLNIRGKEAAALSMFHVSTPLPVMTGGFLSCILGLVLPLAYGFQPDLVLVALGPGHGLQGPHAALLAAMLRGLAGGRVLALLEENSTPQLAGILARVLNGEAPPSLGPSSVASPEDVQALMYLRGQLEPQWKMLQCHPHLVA
The experiment in a line: In-cell target engagement (NanoBRET) assay, NanoLuc-HDAC10. The assay is classed as binding. The source says: We next investigated if accumulation of lysosomes was also affected by inhibition of HDAC6 and HDAC10, respectively. […] Since no bona fide downstream target protein of HDAC10 has been described to date, we performed an in-cell target engagement (NanoBRET) assay that measures competitive displacement of a fluorescently-labeled tracer from NanoLuc® Luciferase coupled HDAC10 enzyme. […] To exclude that lysosomal accumulation after treatment with HDAC6/10 inhibitors was caused by off-target inhibition of class I HDACs, we treated BE(2)-C cells with 1 mM class I HDAC inhibitor valproic acid (VPA).
HeLa cells, stabily transfected with NanoBRET plasmids NanoLuc®-HDAC6 FL Fusion Vector and NanoLuc®-HDAC10 FL Fusion Vector (Promega, Madison, WI, USA) were seeded at 20.000 cells/well in white 96 well plates. Without further incubation, tracer (0.3 µM) and drugs were added in separate steps and plates were placed in a tissue culture incubator for 2 h. For NanoBRET quantification, plates were put at room temperature for 10 minutes. Nanoglow substrate, diluted in OptiMEM without phenol red, was added and measured within 10 minutes in an OPTIMA plate reader (460 nm emission for donor and 610LP filter for acceptor). The BRET signal was calculated by the ratio of acceptor signal and donor signal.
For orientation: BRET reads energy transfer from a luciferase to a nearby fluorophore.

A further assay deals with HDAC6. The experiment in a line: Western blot analysis of tubulin K40 acetylation as a marker for HDAC6 inhibition. The assay is classed as cell-based, human. Conditions: 24 h; bufexamac 30 µM, tubastatin A 7.5 µM, tubacin 7.5 µM. How it is done:
Western blot analysis was performed as previously described. The following antibodies were used: anti-HDAC6 (sc-11420, Santa Cruz), anti-HDAC10 (H3413, Sigma), anti-acetylated histone H3 (06-911, Merck Millipore), anti-histone H3 (9715, Cell Signaling Technology, Cambridge UK), anti-LAMP-1 (H4A3, DHSB, Iowa City, IA, USA), anti-LAMP-2 (H4B4; Santa Cruz Biotechnology), anti-acetylated tubulin (6–11B-1; Sigma), anti-tubulin (2148, Cell Signaling Technology), anti P-glycoprotein (13978 S, Cell Signaling Technology) and anti-β-actin (clone AC-15; Sigma).

Another assay deals with BE(2)-C cells. Briefly: Confocal fluorescence microscopy of doxorubicin-loaded damaged nuclei. The assay is classed as cell-based, human. Conditions: 250 ng/ml doxorubicin + 7.5 µM tubastatin A, 24 h. The procedure:
BE(2)-C cells were seeded at a density of 2 ∗ 10^4 cells per well into an ibidi 8-well µ-slide one day before treatment. For analysis of doxorubicin uptake, cells were treated with 250 ng/ml doxorubicin +/− HDAC6/10 or lysosomal inhibitors for 24 h. The next day, cells were washed in PBS, fixed for 20 minutes using 4% PFA at room temperature, washed twice with PBS and counterstained with DAPI (4′,6-Diamidino-2-phenylindole). In case of LysoTracker® Red staining, cells were treated for 24 h with HDAC6/10 inhibitors. One hour before fixation, LysoTracker® Red was added at a final concentration of 50 nM and cells were stained for 1 h under standard cell culture conditions. Cells were washed as described, fixed for 15 minutes using 4% PFA at room temperature and counterstained as described above. […] Cells were fixed for 15 minutes using 4% PFA, permeabilized for 30 minutes with 0.2% Triton X-100 and blocked in 0.05% Triton X-100 and 3% BSA in PBS for 1 h at room temperature. Cells were stained with Phospho-Histone H2A.X (S139) primary antibody (CST #9718) over night (4 °C) and for 2 h with Alexa-488-labeled secondary antibody (ThermoFisher A-11008) at room temperature. Nuclei were counterstained with DAPI. Images were acquired on a Zeiss LSM710 (Oberkochen, Germany) laser scanning confocal microscope using the 40× objective.

For a further assay, the system named is P-glycoprotein. Briefly: Flow cytometric quantification of cell surface P-gp expression. Type of assay: cell-based, human. Conditions: BE(2)-C; 6 h tubastatin A 7.5 µM; vacuolin-1 10 µM 1 h. The procedure: Cells were dissociated from dishes using non-enzymatic cell dissociation reagent for five minutes. Cells were counted using a ViCell XR automatic cell counter (Beckmann Coulter) and 2.5 ∗ 10^5 cells were transferred into a pre-cooled 96-well round bottom plate (TPP92097). Cells were stained for 1.5–2 hours on ice with primary anti P-gp (Biozol ABA-AB00143-1.1), LAMP-1 (H4A3, DHSB) antibody or isotype control (DLN-05794, Dianova, […]) and for 1 hour with APC-labeled secondary antibody (Dianova 115-136-068). Cells were washed three times in FACS buffer (5% FBS in PBS) after each antibody incubation step. For evaluation of DNA double-strand breaks, cells were detached from dishes using trypsin, counted using a ViCell XR automatic cell counter (Beckmann Coulter) and transferred into a pre-cooled 96-well round bottom plate (4 ∗ 10^6 cells/well). Cells were fixed and permeabilized using the eBioscience^TM Foxp3/Transcription Factor Staining Buffer Set (Thermo Fisher Scientific). Cells were stained for 1.5 h with Phospho-Histone H2A.X (S139) primary antibody (CST #9718) and for 1 h in Alexa-488-labeled secondary antibody (ThermoFisher A-11008). Cells were washed three times in 1× permeabilization buffer after each antibody incubation step and fluorescence was quantified on a BD FACSCanto II platform.
A general note: A flow cytometer gives signals particle by particle.

The structures appear in SMILES notation.

Take `CN1CCc2c(c3ccccc3n2Cc2ccc(C(=O)NO)cc2)C1` [tubastatin A]: the “affinity towards HDAC10 (NanoBRET tracer displacement)” value at HDAC10 is recorded as “strong affinity towards HDAC10”. Also, the “HDAC6 inhibition (tubulin K40 acetylation)” value with HDAC6 is recorded as “substantially inhibited HDAC6”. The “dying cells with highly condensed chromatin, combination with doxorubicin compared to doxorubicin alone” value with BE(2)-C cells is listed as “increased the number of dying cells”. Also, the “cell surface P-gp levels” value in the assay with P-glycoprotein was “slightly increased surface P-gp levels”.

Values taken from paper PMC6030077, “Dual role of HDAC10 in lysosomal exocytosis and DNA repair promotes neuroblastoma chemoresistance” (Scientific Reports, 2018).
